Read-outs that look alike come from different tables or passages of the source.
Key:
MV4-11 [1] = assay: Proliferation inhibition screen at 100 nM; format: cell-based; details: 100 nM compound, FIG. 10
Method: (§1) To determine inhibition at 100 nM or 1 mM, 96-well plates were seeded the afternoon before treatment. Plates were then treated with compound diluted in dimethyl sulfoxide (DMSO) as well as a DMSO control the following day for 72 hours. After this time the plates were then treated with 10 μL of CellTiter-Blue Cell Viability Assay (Promega, Madison, WI) for 4 hours. Then the plates were read on a plate reader (Bio-Tek, Winooski, VT). Data was analyzed on Excel as a percent of the DMSO vehicle.
From these cell proliferation studies, MV4-11 appeared to be more sensitive to the compounds than the other cell lines (Table 6A). […] To identify group of compounds potently inhibiting cancer cell proliferation, a lower concentration of compounds (100 nM) were used to screen against MV4-11 (FIG. 10). From these experiments, potent amide compounds A7, A10, A15, A16, A18, A20, B15 and D30 (as indicated by ***, FIG. 10) were selected. […] Typically amides that contain basic amines are included in compound libraries to improve aqueous solubility but it appears that the presence of a basic amine in the side chain of the compounds also facilitated the actual inhibition of MV4-11 proliferation.

FGFR1 = FGFR1 (Homo sapiens (Human), UniProt P11362); assay: Reaction Biology HotSpot kinase assay; format: biochemical; details: 500 nM compound; read-out: Percentage kinase inhibition FGFR1
Method: (§2) The Reaction Biology Corporation (www.reactionbiology.com, Malvern, PA) HotSpot assay platform was used to measure kinase/inhibitor interactions exactly as previously described. Kinase and substrate were mixed in a buffer containing 20 mM HEPES pH 7.5, 10 mM MgCl2, 1 mM EGTA, 0.02% Brij35, 0.02 mg/mL BSA, 0.1 mM Na3VO4, 2 mM DTT and 1% DMSO. Single-dose of compounds (500 nM) were then added to each reaction mixture. After 20-minute incubation. ATP (Sigma) and [γ-^33P] ATP (Perkin Elmer) were added at a final total concentration of 100 μM for addition 2 hours at room temperature, followed by spotting onto P81 ion exchange cellulose chromatography paper (Whatman, Inc.). […] Percent remaining kinase activity of a vehicle (DMSO) containing kinase reaction was calculated for each kinase/inhibitor pair using Prism 5 (GraphPad).
as §2, with “1” for “DTT”, “incubation,” for “incubation.”

FLT3 = FLT3 (Homo sapiens (Human), UniProt P36888); assay: Reaction Biology HotSpot kinase assay; format: biochemical; details: 500 nM compound; for inhibition at 0.5 µM: read-out: % inhibition of FLT3 activity
Method: as §2
as §2, with “1” for “DTT”, “incubation,” for “incubation.”

RET = RET (Homo sapiens (Human), UniProt P07949); assay: Reaction Biology HotSpot kinase assay; format: biochemical; details: 500 nM compound; read-out: Percentage kinase inhibition RET
Method: as §2
as §2, with “1” for “DTT”, “incubation,” for “incubation.”

TRKC = TRKC (Homo sapiens (Human), UniProt Q16288); assay: Reaction Biology HotSpot kinase assay; format: biochemical; details: 500 nM compound, 100 μM radiolabeled ATP
Method: as §2
as §2, with “1” for “DTT”, “incubation,” for “incubation.”

c-Src = c-Src (Homo sapiens (Human), UniProt P12931); assay: Reaction Biology HotSpot kinase assay; format: biochemical; details: 500 nM compound; read-out: Percentage kinase inhibition c-Src
Method: as §2
as §2, with “1” for “DTT”, “incubation,” for “incubation.”

c-kit = c-kit (Homo sapiens (Human), UniProt P10721); assay: Reaction Biology HotSpot kinase assay; format: biochemical; details: 500 nM compound, 100 μM radiolabeled ATP
Method: as §2
as §2, with “1” for “DTT”, “incubation,” for “incubation.”

K562 = assay: IC50 proliferation assay (Alamar Blue, 72 h); format: cell-based
Method: (§3) IC50 proliferation assay—Cell lines and primary cells were seeded into 96-well plates the afternoon prior to treatment. Approximately 18 hours later, compounds were semi-serially diluted in dimethyl sulfoxide (DMSO) and then growth medium, and added to cells. Plates were incubated for 72 hours prior to addition of Alamar Blue (Life Technologies, Carlsbad, CA). Plates were read after 4 additional hours of incubation at 37° C. using a Bio-Tek Synergy HT plate reader (Bio-Tek, Winooski, VT). Data was analyzed and graphed using GraphPad Prism Software (Graphpad, La Jolla. CA).
(§4) IC50 (proliferation inhibition) against leukemia cell lines MV4-11 and K562. […] MiaPaca-2 (Pancreatic cell line), HLY-1 (Lymphoma cell line), MV4-11 (AML, cell line) and K562 (CML cell line).

MV4-11 [2] = assay: IC50 proliferation assay (Alamar Blue, 72 h); format: cell-based; details: read-out: IC50 (proliferation inhibition) Cell line - MV4-11
Method: as §3, §4

MV-4-11 = assay: Proliferation inhibition at single concentration (CellTiter-Blue); format: cell-based; details: 1 μM compound; for inhibition at 1 µM: Homo sapiens, MV4-11, read-out: Percent inhibition of proliferation MV-4-11
HCT116 = assay: as above; format: cell-based; details: 1 μM compound; for inhibition at 1 µM: Homo sapiens, HCT-116, read-out: Percent inhibition of proliferation HCT116
HeLa = assay: as above; format: cell-based; details: 1 μM compound; for inhibition at 1 µM: Homo sapiens, HeLa, read-out: Percent inhibition of proliferation HeLa
Method: as §1, with “Plates” for “To determine inhibition at 100 nM or 1 mM, 96-well plates were seeded the afternoon before treatment. Plates”
(§5) Antiproliferative activities against AML cell line, MV4-11 (a FLT3-driven cell line) and three other solid tumors (MCF7, breast, HCT116, colon and HeLa) have been investigated (Tables 6A and 6B and FIG. 10).

MCF-7 = assay: as above; format: cell-based; details: 1 μM compound; for inhibition at 1 µM: Homo sapiens, MCF7, read-out: Percent inhibition of proliferation MCF-7
Method: as §1, with “Plates” for “To determine inhibition at 100 nM or 1 mM, 96-well plates were seeded the afternoon before treatment. Plates”
as §5

MOLM14 = assay: IC50 determination (proliferation assay, CellTiter-Blue); format: cell-based
Method: (§6) Cell lines were seeded into 96-well plates the afternoon prior to treatment. Approximately 18 hours later, compounds were diluted in dimethyl sulfoxide (DMSO) and added to cells. Plates were incubated for 72 hours and cells viability determined with CellTiter-Blue Cell Viability Assay (Promega, Madison, WI). Plates were read after 4 additional hours of incubation at 37° C. using plate reader (Bio-Tek, Winooski. VT). Data was analyzed and graphed using GraphPad Prism Software (Graphpad. La Jolla, CA). […]

MV4-11 [3] = assay: as above; format: cell-based
Method: as §6

NCI H1703 (NSCLC) = assay: Activity against lung cancer cell line; format: cell-based; details: Homo sapiens, NCI-H1703
FLT3 (ITD) = FLT3 (ITD) (Homo sapiens, UniProt P36888, ITD); assay: DiscoverX Kd Elect binding; details: read-out: Kd FLT3 (ITD)
Excerpt: Although the current drugs on the market or in clinical trials are relatively successful in killing the AML leukemia cells, they currently are unable to deal with secondary mutations that occur after TKI treatment, such as FLT3 ([…]).

FLT3 (ITD, F691L) = FLT3 (ITD, F691L) (Homo sapiens, UniProt P36888, F691L/ITD); assay: DiscoverX Kd Elect binding; details: read-out: Kd FLT3 (ITD, F691L)
[4] = Homo sapiens, K562, 72 h, read-out: IC50 (proliferation inhibition) Cell line - K562
[5] = Homo sapiens, K562, Table 18, read-out: Inhibition of proliferation of K562 cell lines (CML)

FLT3, sequence (P36888 27-993): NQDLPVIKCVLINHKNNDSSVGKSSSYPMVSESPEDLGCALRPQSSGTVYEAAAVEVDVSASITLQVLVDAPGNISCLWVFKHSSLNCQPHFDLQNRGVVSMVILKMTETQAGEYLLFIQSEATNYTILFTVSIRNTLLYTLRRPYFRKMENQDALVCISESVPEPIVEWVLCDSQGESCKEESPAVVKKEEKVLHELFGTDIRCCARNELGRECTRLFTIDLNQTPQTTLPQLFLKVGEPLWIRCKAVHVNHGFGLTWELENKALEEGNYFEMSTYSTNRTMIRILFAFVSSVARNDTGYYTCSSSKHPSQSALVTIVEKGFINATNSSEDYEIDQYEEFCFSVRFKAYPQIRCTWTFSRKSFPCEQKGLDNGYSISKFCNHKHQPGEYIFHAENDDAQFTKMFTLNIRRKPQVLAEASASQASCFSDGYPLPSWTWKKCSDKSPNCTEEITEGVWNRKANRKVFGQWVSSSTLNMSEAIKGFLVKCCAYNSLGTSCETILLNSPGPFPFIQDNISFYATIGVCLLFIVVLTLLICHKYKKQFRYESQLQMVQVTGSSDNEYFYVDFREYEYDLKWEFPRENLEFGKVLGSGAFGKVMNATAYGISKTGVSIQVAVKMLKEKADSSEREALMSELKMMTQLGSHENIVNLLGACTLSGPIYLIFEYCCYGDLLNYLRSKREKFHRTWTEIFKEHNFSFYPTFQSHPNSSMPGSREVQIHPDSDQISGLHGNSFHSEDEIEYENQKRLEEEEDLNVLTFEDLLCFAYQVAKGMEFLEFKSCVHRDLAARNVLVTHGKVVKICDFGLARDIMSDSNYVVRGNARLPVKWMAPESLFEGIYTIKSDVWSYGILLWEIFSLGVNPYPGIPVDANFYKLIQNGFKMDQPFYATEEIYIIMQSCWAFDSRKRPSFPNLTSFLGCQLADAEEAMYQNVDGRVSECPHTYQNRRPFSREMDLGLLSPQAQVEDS
c-kit, sequence (P10721 26-976): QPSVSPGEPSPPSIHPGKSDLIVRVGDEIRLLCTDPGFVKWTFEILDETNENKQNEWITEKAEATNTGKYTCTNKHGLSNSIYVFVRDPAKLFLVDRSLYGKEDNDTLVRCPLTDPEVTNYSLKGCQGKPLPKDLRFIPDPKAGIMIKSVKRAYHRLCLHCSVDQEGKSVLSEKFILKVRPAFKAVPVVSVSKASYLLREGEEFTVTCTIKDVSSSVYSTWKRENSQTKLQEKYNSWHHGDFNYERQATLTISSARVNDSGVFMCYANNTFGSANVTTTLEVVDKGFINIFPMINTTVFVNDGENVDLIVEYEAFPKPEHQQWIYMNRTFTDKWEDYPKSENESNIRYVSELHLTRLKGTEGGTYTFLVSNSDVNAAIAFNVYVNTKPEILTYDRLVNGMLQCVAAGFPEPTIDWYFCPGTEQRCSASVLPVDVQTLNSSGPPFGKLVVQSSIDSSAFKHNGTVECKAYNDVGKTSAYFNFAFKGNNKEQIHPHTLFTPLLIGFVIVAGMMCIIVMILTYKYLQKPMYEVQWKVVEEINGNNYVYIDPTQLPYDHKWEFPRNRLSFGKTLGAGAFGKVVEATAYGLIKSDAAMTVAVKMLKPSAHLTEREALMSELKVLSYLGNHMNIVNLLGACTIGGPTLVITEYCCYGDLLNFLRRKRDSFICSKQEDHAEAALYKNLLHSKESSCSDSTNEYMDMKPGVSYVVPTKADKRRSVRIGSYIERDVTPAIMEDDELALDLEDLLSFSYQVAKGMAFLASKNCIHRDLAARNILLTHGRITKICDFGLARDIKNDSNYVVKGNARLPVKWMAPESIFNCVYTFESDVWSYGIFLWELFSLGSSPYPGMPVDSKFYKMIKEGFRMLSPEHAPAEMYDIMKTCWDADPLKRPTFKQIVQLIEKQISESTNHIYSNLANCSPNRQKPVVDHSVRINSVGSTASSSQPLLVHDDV
c-Src, sequence (P12931 whole entry, looked up): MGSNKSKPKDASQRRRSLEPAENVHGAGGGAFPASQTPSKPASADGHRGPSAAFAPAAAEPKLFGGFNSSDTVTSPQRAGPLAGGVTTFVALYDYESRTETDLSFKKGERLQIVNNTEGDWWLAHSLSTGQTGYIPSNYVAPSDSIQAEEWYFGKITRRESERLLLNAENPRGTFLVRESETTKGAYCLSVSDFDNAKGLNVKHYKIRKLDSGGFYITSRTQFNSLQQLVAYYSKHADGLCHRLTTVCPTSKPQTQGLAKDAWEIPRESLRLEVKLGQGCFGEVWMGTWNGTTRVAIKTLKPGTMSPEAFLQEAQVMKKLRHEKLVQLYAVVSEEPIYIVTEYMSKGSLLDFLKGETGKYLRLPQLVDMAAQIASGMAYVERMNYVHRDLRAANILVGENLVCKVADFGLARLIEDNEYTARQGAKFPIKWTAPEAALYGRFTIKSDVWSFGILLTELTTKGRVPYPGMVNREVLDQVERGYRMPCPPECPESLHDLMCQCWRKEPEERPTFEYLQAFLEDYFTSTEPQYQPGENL
FGFR1, sequence (P11362 22-822): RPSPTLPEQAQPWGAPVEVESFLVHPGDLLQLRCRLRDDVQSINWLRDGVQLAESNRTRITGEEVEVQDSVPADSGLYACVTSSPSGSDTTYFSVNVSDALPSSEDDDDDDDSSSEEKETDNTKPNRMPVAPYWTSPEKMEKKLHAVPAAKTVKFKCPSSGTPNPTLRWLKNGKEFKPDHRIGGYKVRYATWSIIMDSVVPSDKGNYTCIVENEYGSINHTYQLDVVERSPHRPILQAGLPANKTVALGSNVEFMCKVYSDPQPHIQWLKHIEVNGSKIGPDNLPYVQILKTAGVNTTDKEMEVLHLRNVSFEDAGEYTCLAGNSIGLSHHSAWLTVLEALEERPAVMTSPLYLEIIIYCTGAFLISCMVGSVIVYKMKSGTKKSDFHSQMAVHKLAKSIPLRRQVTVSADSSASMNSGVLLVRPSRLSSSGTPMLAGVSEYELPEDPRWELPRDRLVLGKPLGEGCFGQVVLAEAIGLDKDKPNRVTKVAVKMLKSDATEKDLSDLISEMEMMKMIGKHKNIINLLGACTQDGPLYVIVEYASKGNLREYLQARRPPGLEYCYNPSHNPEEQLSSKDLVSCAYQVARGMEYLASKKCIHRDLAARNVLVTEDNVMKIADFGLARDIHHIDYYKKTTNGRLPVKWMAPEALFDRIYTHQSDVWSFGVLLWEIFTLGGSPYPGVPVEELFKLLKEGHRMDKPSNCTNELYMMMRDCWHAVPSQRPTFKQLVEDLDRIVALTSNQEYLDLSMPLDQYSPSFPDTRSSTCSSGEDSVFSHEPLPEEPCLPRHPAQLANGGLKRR
TRKC, sequence (Q16288 32-839): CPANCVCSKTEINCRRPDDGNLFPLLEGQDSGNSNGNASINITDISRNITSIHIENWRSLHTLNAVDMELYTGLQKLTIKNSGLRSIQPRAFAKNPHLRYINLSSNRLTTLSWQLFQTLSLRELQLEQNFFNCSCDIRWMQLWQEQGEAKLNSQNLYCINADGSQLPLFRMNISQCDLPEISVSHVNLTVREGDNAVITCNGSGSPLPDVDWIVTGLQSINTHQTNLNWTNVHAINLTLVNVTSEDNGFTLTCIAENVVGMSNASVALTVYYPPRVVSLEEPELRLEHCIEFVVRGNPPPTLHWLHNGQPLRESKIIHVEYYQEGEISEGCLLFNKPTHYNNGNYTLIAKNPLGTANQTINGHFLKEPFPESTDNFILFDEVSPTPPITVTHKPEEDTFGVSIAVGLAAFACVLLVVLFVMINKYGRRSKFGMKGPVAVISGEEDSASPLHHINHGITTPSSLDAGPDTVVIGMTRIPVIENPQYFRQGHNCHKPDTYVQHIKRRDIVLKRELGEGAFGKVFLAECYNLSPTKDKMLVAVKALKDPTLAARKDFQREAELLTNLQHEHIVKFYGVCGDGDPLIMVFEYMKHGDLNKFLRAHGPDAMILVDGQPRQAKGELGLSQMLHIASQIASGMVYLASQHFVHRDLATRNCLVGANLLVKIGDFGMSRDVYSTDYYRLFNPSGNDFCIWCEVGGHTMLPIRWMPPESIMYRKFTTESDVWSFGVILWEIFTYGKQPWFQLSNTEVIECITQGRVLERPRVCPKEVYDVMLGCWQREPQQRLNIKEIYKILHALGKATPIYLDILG
FLT3 (ITD, F691L), sequence (P36888 whole entry, looked up, stated change not applied): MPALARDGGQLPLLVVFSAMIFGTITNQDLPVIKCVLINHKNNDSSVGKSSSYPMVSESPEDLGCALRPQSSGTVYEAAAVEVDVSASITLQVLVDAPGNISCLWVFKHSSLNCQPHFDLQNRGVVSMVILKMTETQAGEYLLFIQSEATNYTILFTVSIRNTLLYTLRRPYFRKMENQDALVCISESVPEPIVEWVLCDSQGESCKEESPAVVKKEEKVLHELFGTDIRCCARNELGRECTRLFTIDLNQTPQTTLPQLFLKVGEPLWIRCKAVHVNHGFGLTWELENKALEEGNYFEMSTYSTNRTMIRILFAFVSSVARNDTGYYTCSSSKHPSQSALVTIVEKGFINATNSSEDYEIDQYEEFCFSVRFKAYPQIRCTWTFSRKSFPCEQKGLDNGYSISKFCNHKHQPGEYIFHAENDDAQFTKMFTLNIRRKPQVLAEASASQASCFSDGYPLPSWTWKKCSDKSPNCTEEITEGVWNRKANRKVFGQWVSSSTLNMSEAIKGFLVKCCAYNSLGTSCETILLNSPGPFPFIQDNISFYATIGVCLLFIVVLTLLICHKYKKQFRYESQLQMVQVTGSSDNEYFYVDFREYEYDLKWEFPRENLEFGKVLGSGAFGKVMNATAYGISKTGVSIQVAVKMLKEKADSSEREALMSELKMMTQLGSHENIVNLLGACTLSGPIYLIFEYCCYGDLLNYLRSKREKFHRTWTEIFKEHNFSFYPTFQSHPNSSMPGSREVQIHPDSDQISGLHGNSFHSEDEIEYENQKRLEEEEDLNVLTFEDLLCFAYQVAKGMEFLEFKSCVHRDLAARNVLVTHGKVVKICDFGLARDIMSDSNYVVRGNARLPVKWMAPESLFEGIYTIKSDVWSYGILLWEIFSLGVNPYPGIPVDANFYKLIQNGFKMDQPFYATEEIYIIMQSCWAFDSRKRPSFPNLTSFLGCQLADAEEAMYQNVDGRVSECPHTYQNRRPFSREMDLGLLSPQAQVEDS
FLT3 (ITD), sequence (P36888 whole entry, looked up, change not shown): as the sequence (P36888 whole entry, looked up, stated change not applied) above

| inhibition at 0.5 µM (FGFR1) [%] | inhibition at 0.5 µM (FLT3) [%] | inhibition at 0.5 µM (c-Src) [%] | inhibition at 0.5 µM (c-kit) [%] | IC50 (K562; [4]) [nM] | IC50 (K562; [5]) [nM] | IC50 (MV4-11 [2]; Homo sapiens, MV4-11, 72 h) [nM] | IC50 (MOLM14; Homo sapiens, MOLM-14) [nM] | IC50 (MV4-11 [3]; Homo sapiens, MV4-11) [nM] | Structure (SMILES) | inhibition of MV4-11 proliferation in words (MV4-11 [1]) | also measured |
| --- | --- | --- | --- | --- | --- | --- | --- | --- | --- | --- | --- |
| 6 | 74 | 3 | 86 | 25 | 25.7 ± 0.31 | 154 | 129 ± 8.2 | 154 ± 7.1 | CCN(CC)CCNC(=O)c1ccc(C)c(C#Cc2c(N)ncc3ccc(Cl)cc23)c1 [HSN247] |  | % inhibition of FLT3 activity (FLT3): 75%; inhibition at 0.5 µM (RET): 3%; inhibition at 0.5 µM (TRKC): 77%; inhibition at 1 µM (MV-4-11): 58%; inhibition at 1 µM (HCT116): 54%; inhibition at 1 µM (HeLa): 100%; inhibition at 1 µM (MCF-7): 100%; proliferation inhibition in words, MV4-11 / AML (MV4-11 [3]): only moderate inhibitors |
| 9 | 73 | 23 | 93 | 7 | 7 ± 0.1 | 225 | 180 ± 7.8 | 181 ± 6.5 | Cc1ccc(C(=O)NCCN2CCCCC2)cc1C#Cc1c(N)ncc2ccc(Cl)cc12 [HSN248] |  | inhibition at 0.5 µM (RET): 52%; inhibition at 0.5 µM (TRKC): 83%; inhibition at 1 µM (MV-4-11): 98%; inhibition at 1 µM (HCT116): 76%; inhibition at 1 µM (HeLa): 100%; inhibition at 1 µM (MCF-7): 100%; proliferation inhibition in words, MV4-11 / AML (MV4-11 [3]): only moderate inhibitors |
| 100 | 93 | 100 | 78 | 2 | 2.4 ± 0.06 | 3 | 3.01 ± 0.1 | 3.09 ± 0.1 | Cc1ccc(C(=O)Nc2ccc(CN3CCN(C)CC3)c(C(F)(F)F)c2)cc1C#Cc1c(N)ncc2ccccc12 [HSN352, 3-((3-aminoisoquinolin-4-yl)ethynyl)-4-methyl-N-(4-((4-methylpiperazin-1-yl)methyl)-3-(trifluoromethyl)phenyl)benzamide] |  |  |
| 93 | 94 | 98 | 82 | 5 | 5.2 ± 0.02 | 3 | 1.97 ± 0.1 | 3.45 ± 0.04 | Cc1ccc(C(=O)Nc2ccc(CN3CCN(C)CC3)c(C(F)(F)F)c2)cc1C#Cc1c(N)ncc2c(Cl)cccc12 [HSN353, 3-((3-amino-8-chloroisoquinolin-4-yl)ethynyl)-4-methyl-N-(4-((4-methylpiperazin-1-yl)methyl)-3-(trifluoromethyl)phenyl)benzamide] |  |  |

Second part, the molecule before the results:

| Structure (SMILES) | inhibition at 0.5 µM (FGFR1) [%] | inhibition at 0.5 µM (FLT3) [%] | inhibition at 0.5 µM (c-Src) [%] | inhibition at 0.5 µM (c-kit) [%] | IC50 (K562; [4]) [nM] | IC50 (K562; [5]) [nM] | IC50 (MV4-11 [2]; Homo sapiens, MV4-11, 72 h) [nM] | IC50 (MOLM14; Homo sapiens, MOLM-14) [nM] | IC50 (MV4-11 [3]; Homo sapiens, MV4-11) [nM] | inhibition of MV4-11 proliferation in words (MV4-11 [1]) | also measured |
| --- | --- | --- | --- | --- | --- | --- | --- | --- | --- | --- | --- |
| Nc1ncc2ccc(Cl)cc2c1C#Cc1ccc(C(=O)NCCCN2CCCCC2)cc1 [Compound A10] |  |  |  |  |  |  |  |  |  | potent |  |
| CN(C)CC(O)CNC(=O)c1ccc(C#Cc2c(N)ncc3ccc(Cl)cc23)cc1 (stereo not shown) [Compound A15] |  |  |  |  |  |  |  |  |  | potent |  |
| CCN(CC)CC(O)CNC(=O)c1ccc(C#Cc2c(N)ncc3ccc(Cl)cc23)cc1 (stereo not shown) [Compound A16] |  |  |  |  |  |  |  |  |  | potent |  |
| COCCCNC(=O)c1ccc(C#Cc2c(N)ncc3ccc(Cl)cc23)cc1 [Compound A25] |  |  |  |  |  |  |  |  |  | inactive |  |
| Cc1ccc(C(=O)NCc2ccc(OCCN(C)C)cc2)cc1C#Cc1c(N)ncc2ccc(Cl)cc12 [HSN315] |  |  |  |  |  |  |  |  |  |  | % inhibition of FLT3 activity (FLT3): 32%; IC50 (K562; 72 h, read-out: IC50 (proliferation inhibition) Cell line - K562): 203 nM; IC50 (K562; Table 18, read-out: Inhibition of proliferation of K562 cell lines (CML)): 203 ± 0.1 nM; IC50 (MV4-11 [2]; 72 h): 540 nM; Percent inhibition of proliferation MV-4-11 (MV-4-11): 83%; Percent inhibition of proliferation HCT116 (HCT116): 66%; Percent inhibition of proliferation HeLa (HeLa): 100%; Percent inhibition of proliferation MCF-7 (MCF-7): 100%; IC50 (MOLM14): 523 ± 6.4 nM; IC50 (MV4-11 [3]): 549 ± 7.4 nM; proliferation inhibition in words, MV4-11 / AML (MV4-11 [3]): only moderate inhibitors |
| Cc1ccc(C(=O)NCc2ccc(OCCN(C)C)cc2)cc1C#Cc1cc(N)nc2ccccc12 [HSN316, 3-((2-aminoquinolin-4-yl)ethynyl)-N-(4-(2-(dimethylamino)ethoxy)benzyl)-4-methylbenzamide] |  |  |  |  | 759 | 913 ± 0.1 | 759 |  |  |  |  |
| Cc1ccc2cnc(N)c(C#Cc3cc(C(=O)Nc4ccc(CN5CCN(C)CC5)c(C(F)(F)F)c4)ccc3C)c2c1 [HSN379, 3-((3-amino-6-methylisoquinolin-4-yl)ethynyl)-4-methyl-N-(4-((4-methylpiperazin-1-yl)methyl)-3-(trifluoromethyl)phenyl)benzamide] |  |  |  |  |  |  |  |  |  |  | IC50 (NCI H1703 (NSCLC)): 13 nM |
| Cc1ncc(C(=O)Nc2ccc(CN3CCN(C)CC3)c(C(F)(F)F)c2)cc1C#Cc1cnc(N)c2ncccc12 [HSN459, 5-((8-amino-1,7-naphthyridin-5-yl)ethynyl)-6-methyl-N-(4-((4-methylpiperazin-1-yl)methyl)-3-(trifluoromethyl)phenyl)nicotinamide] |  |  |  |  |  |  |  |  |  |  | Kd (FLT3 (ITD)): 5.6 nM; Kd (FLT3 (ITD, F691L)): 17 nM; IC50 (NCI H1703 (NSCLC)): 38 nM |

— patent US20250084039A1, “4-SUBSTITUTED AMINOISOQUINOLINE DERIVATIVES” (Purdue Research Foundation, priority 2016, published 2025)
